Test systems include SNB-19; Malme-3M; LOX IMVI; SN12C; UACC-62; ACHN; 786-0; M14; SNB-75; HCT-15; SF-539; HOP-62; UACC-257; NCI-H226; OVCAR-8; CCRF-CEM; SW-620; U-251.
What all share (assay): NCI anticancer screen, dose series, 48 h

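Five concentrations, 48 hours, 96-well plates. Abbreviation: GI50, concentration required for 50% inhibition of growth.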 The source made the active and inactive calls. Rule as the data show it: active = GI50 up to about 1.1 µM and inactive = higher. A value given as a limit tells only on which side of the number the result lay.

Consider `CN(C)NC1=C([N+](=O)[O-])C=NN(c2ccccc2)C1`, for which the GI50 with SNB-19 was 2.54 µM (inactive); with Malme-3M, 1.96 µM (inactive); in the assay on LOX IMVI, 1.59 µM (inactive); in the assay with SN12C, 1.76 µM (inactive); in the assay on UACC-62, 1.71 µM (inactive); with ACHN, 1.73 µM (inactive). For the same compound, the GI50 with 786-0 was 1.77 µM (inactive); in the assay with M14 it was 1.82 µM (inactive); in the assay on SNB-75, 1.73 µM (inactive); in the assay on HCT-15 it was 1.55 µM; with SF-539 it was 1.89 µM (inactive); with HOP-62, 2.16 µM (inactive). For the same compound, the GI50 is 1.74 µM (inactive) with UACC-257; 3.84 µM (inactive) in the assay on NCI-H226; 2.04 µM (inactive) with OVCAR-8; 1.79 µM (inactive) in the assay with CCRF-CEM; 1.89 µM (inactive) in the assay on SW-620; 1.76 µM (inactive) in the assay on U-251.

Take `COc1ccc(C2=C[C@]3(O)CCCN3C[C@@H]2c2ccc(OC)c(OC)c2)cc1`: the GI50 with SNB-19, in the assay on Malme-3M, in the assay with LOX IMVI, in the assay with SN12C, in the assay with UACC-62 and with ACHN was < 0.0001 µM (active) each time. Besides, the GI50 in the assay with 786-0 is < 0.0001 µM (active); with M14, < 0.0001 µM (active); in the assay on SNB-75, < 0.0001 µM (active); in the assay with HCT-15 it was under 0.0001 µM; in the assay with SF-539, < 0.0001 µM (active); in the assay with HOP-62, < 0.0001 µM (active). In addition, the GI50 in the assay with UACC-257, in the assay with NCI-H226, with OVCAR-8, in the assay with CCRF-CEM, with SW-620 and in the assay on U-251 was < 0.0001 µM (active) in each case.

On to `COc1ccc(OC)c(NC(=O)CCC/C(CC(=O)c2ccc(O)c(OC)c2)=N\NC(=O)C[N+](C)(C)C)c1`, for which the GI50 with SNB-19, with Malme-3M, with LOX IMVI, in the assay on SN12C, with UACC-62 and in the assay with ACHN was > 100 µM (inactive) each time. Further, the GI50 in the assay with 786-0 is > 100 µM (inactive); with M14, > 100 µM (inactive); in the assay with SNB-75, 84.7 µM (inactive); in the assay on HCT-15, over 100 µM; in the assay with SF-539, > 100 µM (inactive); in the assay on HOP-62 it was > 100 µM (inactive). Moreover, the GI50 in the assay on UACC-257, with NCI-H226, in the assay with OVCAR-8, with CCRF-CEM, in the assay with SW-620 and in the assay with U-251 was > 100 µM (inactive) each time.

`C=C=C(C(=O)OC)[S+]([O-])c1ccc([N+](=O)[O-])cc1[N+](=O)[O-]` (stereo not given): the GI50 in the assay on SNB-19 is 56 µM (inactive); with Malme-3M, > 56.1 µM (inactive); with LOX IMVI, 21.5 µM (inactive); with SN12C it was 22.4 µM (inactive); in the assay with UACC-62, 28.2 µM (inactive); with ACHN, 37.2 µM (inactive). In addition, the GI50 with 786-0 was 39.7 µM (inactive); in the assay with M14, 30.7 µM (inactive); in the assay on SNB-75 it was 29 µM (inactive); with HCT-15, 21.5 µM; in the assay on SF-539 it was 26.1 µM (inactive); in the assay with HOP-62, > 45.3 µM (inactive). The GI50 in the assay on UACC-257 was 34.9 µM (inactive); in the assay with NCI-H226, 54.6 µM (inactive); in the assay on OVCAR-8 it was 25.2 µM (inactive); with CCRF-CEM it was 12 µM (inactive); in the assay on SW-620, 14.5 µM (inactive); with U-251, 38.1 µM (inactive).

As to `O=C(c1ccc(Cl)cc1)c1ccc(OCCCOc2ccc(C(=O)c3ccc(Cl)cc3)cc2)cc1`, the GI50 in the assay with SNB-19, with Malme-3M, with LOX IMVI, in the assay on SN12C, in the assay on UACC-62 and in the assay with ACHN was > 100 µM (inactive) throughout. The GI50 in the assay on 786-0 was > 100 µM (inactive); in the assay with M14, > 100 µM (inactive); in the assay on SNB-75, 33.6 µM (inactive); in the assay with HCT-15, over 100 µM; in the assay on SF-539, > 100 µM (inactive); with HOP-62, > 100 µM (inactive). Besides, the GI50 in the assay on UACC-257, in the assay with NCI-H226, with OVCAR-8, with CCRF-CEM, in the assay with SW-620 and in the assay on U-251 was > 100 µM (inactive) each time.

In the case of `CC1CC(C)C(=O)C(C(=O)CC2CC(=O)NC2=O)C1` (stereo not given), the GI50 in the assay with SNB-19, in the assay on Malme-3M, in the assay on LOX IMVI, in the assay with SN12C, with UACC-62 and in the assay with ACHN was > 100 µM (inactive) throughout. Moreover, the GI50 with 786-0, in the assay with M14, in the assay with SNB-75, in the assay on SF-539, in the assay on HOP-62 and in the assay on UACC-257 was > 100 µM (inactive) in each case. Moreover, the GI50 with NCI-H226, with OVCAR-8, in the assay with CCRF-CEM, in the assay on SW-620 and with U-251 was > 100 µM (inactive) in each case.

For `O=C(O)CSc1nnc(-c2ccco2)[nH]1`, the GI50 with SNB-19, in the assay with Malme-3M, in the assay with LOX IMVI, in the assay with SN12C, in the assay with UACC-62 and in the assay on ACHN was > 100 µM (inactive) in each case. In addition, the GI50 in the assay with 786-0 is > 100 µM (inactive); in the assay on M14, > 100 µM (inactive); in the assay on SNB-75, 95.5 µM (inactive); in the assay with SF-539, > 100 µM (inactive); in the assay on HOP-62, > 100 µM (inactive); in the assay on UACC-257, > 100 µM (inactive). The GI50 in the assay with NCI-H226, in the assay with OVCAR-8, in the assay on CCRF-CEM, in the assay on SW-620 and in the assay with U-251 was > 100 µM (inactive) in each case.

Take `Cc1cc([N+](=O)[O-])c(S(=O)(=O)c2ccccc2)c([N+](=O)[O-])c1`: the GI50 was 18.5 µM (inactive) in the assay with SNB-19; 13.6 µM (inactive) in the assay with Malme-3M; 2.57 µM (inactive) with LOX IMVI; 4.43 µM (inactive) with SN12C; 7.69 µM (inactive) with UACC-62; 16.5 µM (inactive) in the assay on ACHN. The GI50 is 3.95 µM (inactive) with 786-0; 5.93 µM (inactive) with M14; 22.5 µM (inactive) with SNB-75; 16 µM with HCT-15; 12.7 µM (inactive) in the assay on SF-539; 21.7 µM (inactive) in the assay on HOP-62. The GI50 with UACC-257 was 3.52 µM (inactive); in the assay on NCI-H226, 12.2 µM (inactive); in the assay on OVCAR-8 it was 6.9 µM (inactive); in the assay on CCRF-CEM it was 3.52 µM (inactive); in the assay on SW-620, 3.95 µM (inactive); with U-251 it was 13.5 µM (inactive).

As for `CCn1cnc2c(=S)nc(N)[nH]c21`, the GI50 with SNB-19, in the assay on Malme-3M, in the assay with LOX IMVI, with SN12C, with UACC-62 and in the assay with ACHN was > 100 µM (inactive) in each case. For the same compound, the GI50 in the assay on 786-0 is > 100 µM (inactive); in the assay on M14, > 100 µM (inactive); with SNB-75, > 100 µM (inactive); in the assay on HCT-15, over 100 µM; in the assay with SF-539 it was > 100 µM (inactive); with HOP-62, > 100 µM (inactive). The GI50 in the assay with UACC-257, in the assay with NCI-H226, in the assay with OVCAR-8, in the assay with CCRF-CEM, with SW-620 and in the assay on U-251 was > 100 µM (inactive) throughout.

Turning to `COc1cc(Br)c(/C=N/N=C(\N)NO)cc1OC`, the GI50 in the assay on SNB-19 was 46.3 µM (inactive); in the assay with Malme-3M, 21.1 µM (inactive); with LOX IMVI, 17.6 µM (inactive); in the assay on SN12C, 24.6 µM (inactive); in the assay on UACC-62, 11.1 µM (inactive); in the assay with ACHN, 9.35 µM (inactive). Besides, the GI50 is 18.4 µM (inactive) in the assay on 786-0; 16.4 µM (inactive) in the assay with M14; 21.3 µM (inactive) with SNB-75; 36 µM in the assay with HCT-15; 24.7 µM (inactive) in the assay with SF-539; 14.1 µM (inactive) with HOP-62. Also, the GI50 in the assay with UACC-257 is 17.3 µM (inactive); in the assay with NCI-H226, 10.9 µM (inactive); with OVCAR-8, 15.6 µM (inactive); with CCRF-CEM, 30.1 µM (inactive); in the assay on SW-620, 35.1 µM (inactive); in the assay with U-251, 23.4 µM (inactive).

`[O-][S+]1CSCS1` (stereo not given): the GI50 in the assay with SNB-19, with Malme-3M, with LOX IMVI, in the assay on SN12C, with UACC-62 and in the assay with ACHN was > 100 µM (inactive) in each case. Besides, the GI50 in the assay with 786-0, with M14, in the assay on SNB-75, in the assay on SF-539, in the assay on HOP-62 and with UACC-257 was > 100 µM (inactive) each time. The GI50 with NCI-H226, in the assay on OVCAR-8, in the assay with CCRF-CEM, in the assay with SW-620 and in the assay with U-251 was > 100 µM (inactive) in each case.

The values above are taken from ChEMBL document CHEMBL1201862, “PubChem BioAssay data set” (2004).
